Among the test systems are ACHN renal; MDA-N; CAKI-1 renal; RPMI-8226 leukemia; SK-MEL-5 melanoma; OVCAR-8 ovarian; SF-268 CNS; SNB-75 CNS; IGROV1 ovarian; MALME-3M melanoma.
Holding throughout (test): NCI tumour cell line growth inhibition, 48 h

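Where inhibition never reached the appropriate level, the endpoint shown equals the highest concentration tested. Otherwise, values were interpolated linearly from a five-concentration, 48-hour dose response in 96-well plates. TGI denotes the concentration required for complete inhibition of growth.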

In the case of `c1cc2nnnn2nc1N1CCCC1`, the TGI in the experiment with ACHN renal, with MDA-N, with CAKI-1 renal, in the experiment with RPMI-8226 leukemia, with SK-MEL-5 melanoma and with OVCAR-8 ovarian was above 100 µM throughout. The compound further showed a TGI in the experiment on SF-268 CNS above 100 µM.
Regarding `COc1cc(Nc2c3ccccc3nc3ccccc23)ccc1NS(C)(=O)=O`, the TGI in the experiment on ACHN renal is 14.8 µM; in the experiment with SNB-75 CNS, 47.1 µM; in the experiment with IGROV1 ovarian, 36.3 µM; in the experiment with MALME-3M melanoma it was 21.7 µM; with RPMI-8226 leukemia, above 100 µM; in the experiment with SK-MEL-5 melanoma, 28.6 µM. Also, the figures for the TGI in the experiment with OVCAR-8 ovarian and in the experiment with SF-268 CNS were 17.2 µM and 25.5 µM, respectively.
As for `O=C(O)CC[N+]1=CCC(c2ccccc2)(c2ccccc2)O1`, the TGI with ACHN renal, in the experiment with SNB-75 CNS, in the experiment with IGROV1 ovarian, in the experiment with MDA-N, in the experiment on CAKI-1 renal and in the experiment on SK-MEL-5 melanoma was above 100 µM in each case. In addition, the TGI in the experiment with OVCAR-8 ovarian and in the experiment on SF-268 CNS was above 100 µM throughout.
Consider `O=C1c2ccccc2CCCCCCCCCCC12OCCCO2`, for which the TGI is above 100 µM with ACHN renal; above 100 µM with SNB-75 CNS; above 100 µM with IGROV1 ovarian; 77.8 µM in the experiment on MALME-3M melanoma; 95.7 µM in the experiment on CAKI-1 renal; 40 µM in the experiment on RPMI-8226 leukemia. Also, the TGI was 83.8 µM in the experiment with SK-MEL-5 melanoma, above 100 µM in the experiment on OVCAR-8 ovarian and 96.7 µM in the experiment with SF-268 CNS.
Turning to `CCc1ccc2oc(-c3cc(O)c(-c4nc5cc(CC)ccc5o4)cc3O)nc2c1`, the TGI in the experiment on ACHN renal, with SNB-75 CNS, in the experiment with IGROV1 ovarian, in the experiment on MDA-N, in the experiment on RPMI-8226 leukemia and in the experiment with SK-MEL-5 melanoma was above 100 µM in each case. For the same compound, the TGI in the experiment with OVCAR-8 ovarian and in the experiment with SF-268 CNS was above 100 µM each time.
Take `Nc1ccc2[nH]c3c(-c4ccccc4)nccc3c2c1`: the TGI was above 92.7 µM in the experiment on SNB-75 CNS; above 100 µM in the experiment with IGROV1 ovarian; above 100 µM in the experiment with MALME-3M melanoma; above 100 µM in the experiment with RPMI-8226 leukemia; above 31.6 µM in the experiment on SK-MEL-5 melanoma; above 100 µM with OVCAR-8 ovarian. In the experiment with SF-268 CNS, this compound came in with a TGI above 100 µM.
On to `Cc1ccc2nc(Cl)c(/C=N/N3C(=O)/C(=C/c4ccccc4S)N=C3c3ccccc3)cc2c1`, for which the TGI with ACHN renal was above 100 µM; in the experiment with SNB-75 CNS, 86.5 µM; with IGROV1 ovarian, above 100 µM; in the experiment with MDA-N it was 40.5 µM; with CAKI-1 renal it was above 100 µM; in the experiment on RPMI-8226 leukemia, 68.1 µM. Also, the TGI in the experiment with SK-MEL-5 melanoma, in the experiment with OVCAR-8 ovarian and with SF-268 CNS was above 100 µM in each case.
Consider `CCCSc1ccc2[nH]c(/N=C/c3ccco3)cc2c1`, for which the TGI in the experiment on ACHN renal was above 100 µM; with SNB-75 CNS, above 100 µM; with IGROV1 ovarian, above 100 µM; with MALME-3M melanoma, above 100 µM; in the experiment with CAKI-1 renal, above 100 µM; in the experiment with RPMI-8226 leukemia, 1.4 µM. Further, the TGI in the experiment on SK-MEL-5 melanoma was 32.6 µM; with OVCAR-8 ovarian, above 100 µM; in the experiment on SF-268 CNS, above 100 µM.
In the case of `CN(O)C(=O)c1cccc(Cl)c1`, the TGI in the experiment with ACHN renal, in the experiment with SNB-75 CNS, with IGROV1 ovarian, with MDA-N, in the experiment on CAKI-1 renal and in the experiment on RPMI-8226 leukemia was above 100 µM in each case. Further, the TGI in the experiment with SK-MEL-5 melanoma, with OVCAR-8 ovarian and in the experiment on SF-268 CNS was above 100 µM throughout.
`O=C1c2ccccc2C(=O)N1Cc1ccccc1-c1c2nc(c(-c3ccccc3CN3C(=O)c4ccccc4C3=O)c3ccc([nH]3)c(-c3ccccc3CN3C(=O)c4ccccc4C3=O)c3nc(c(-c4ccccc4CN4C(=O)c5ccccc5C4=O)c4ccc1[nH]4)C=C3)C=C2`: the TGI in the experiment on ACHN renal, in the experiment with SNB-75 CNS, in the experiment with IGROV1 ovarian, in the experiment with MALME-3M melanoma, in the experiment on CAKI-1 renal and in the experiment on RPMI-8226 leukemia was above 100 µM in each case. For the same compound, the TGI in the experiment on SK-MEL-5 melanoma, with OVCAR-8 ovarian and in the experiment with SF-268 CNS was above 100 µM each time.
Take `C1CNCCNCCN1`: the TGI with ACHN renal, in the experiment on IGROV1 ovarian, in the experiment on MDA-N, in the experiment with CAKI-1 renal, with RPMI-8226 leukemia and with SK-MEL-5 melanoma was above 100 µM in each case. Also, the TGI with OVCAR-8 ovarian and in the experiment with SF-268 CNS was above 100 µM in each case.
Regarding `COc1ccc(O)cc1`, the TGI with ACHN renal, with SNB-75 CNS, with IGROV1 ovarian, with MALME-3M melanoma, in the experiment on CAKI-1 renal and with RPMI-8226 leukemia was above 100 µM in each case. Also, the TGI in the experiment on SK-MEL-5 melanoma, in the experiment on OVCAR-8 ovarian and with SF-268 CNS was above 100 µM each time.
`NC1=NS(=O)(=O)Nc2nc(-c3ccc([N+](=O)[O-])cc3)[nH]c21`: the TGI in the experiment on ACHN renal, with SNB-75 CNS, in the experiment on IGROV1 ovarian, in the experiment on MALME-3M melanoma, with CAKI-1 renal and with RPMI-8226 leukemia was above 100 µM in each case. The TGI in the experiment on SK-MEL-5 melanoma, in the experiment with OVCAR-8 ovarian and in the experiment on SF-268 CNS was above 100 µM each time.
On to `Cc1cn(C(Cc2ccccc2)OCCO)c(=O)[nH]c1=O` (stereo unspecified), for which the TGI in the experiment on ACHN renal, with SNB-75 CNS, in the experiment with IGROV1 ovarian, in the experiment on MDA-N, in the experiment with CAKI-1 renal and in the experiment with RPMI-8226 leukemia was above 100 µM in each case. Moreover, the TGI in the experiment with SK-MEL-5 melanoma and with OVCAR-8 ovarian was above 100 µM in each case.
On to `O=c1nc2c(c(-c3ccccc3Cl)[nH]1)COC/C2=C\c1ccccc1Cl`, for which the TGI in the experiment with ACHN renal, in the experiment on SNB-75 CNS, in the experiment with IGROV1 ovarian, in the experiment with MDA-N, in the experiment on CAKI-1 renal and in the experiment with RPMI-8226 leukemia was above 100 µM throughout. Besides, the TGI with SK-MEL-5 melanoma, in the experiment on OVCAR-8 ovarian and with SF-268 CNS was above 100 µM throughout.

Source of the values: PubChem BioAssay (NCI).
